Measured values taken from patent US9211310B2, “Use of a Chinese medicine composition in preparing medicaments for treating secondary prevention of myocardial infarction” (TASLY PHARMACEUTICAL GROUP CO., LTD, priority 2010, dated 2015).

System: patients after acute myocardial infarction
Assay: Life quality, Seattle Angina Questionnaire (SAQ), same clinical trial
Type: in vivo, human
Conditions: FAS
From the text: 3508 patients who were in accordance with the diagnostic standards of AMI for 28 days to 2 years and differentiated as Qi deficiency and blood stagnation syndrome by TCM were studied. 0.5 g Chinese medicine composition prepared by the method of EXAMPLE 1 (Coded as QSYQ) was administrated half an hour after meal, 3 times per day.
There were 19 questions in the Seattle angina questionnaire (SAQ), including 5 parts: physical limitation (PL), anginal stability (AS), anginal frequency (AF), treatment satisfaction (TS) and disease perception (DP). After being given necessary explanation by doctors, the questions were answered independently by patients.
They included the overall survival time, angina pectoris score, TCM symptom score and life quality score, where angina pectoris score, TCM symptom score and life quality score were evaluated at randomization, in 1st, 3rd, 6th, 9th, 12th month after treatment and 18th month after follow-up.
All evaluation results of SAQ were described during the period of observation, and Wilcoxon rank sum test was used for inter-group comparison.
The evaluation results in the SAQ were depicted in different observations, and inter-group comparison was tested by Wilcoxon Rank-sum test.

CC(=O)Oc1ccccc1C(=O)O [Control group, aspirine]
SAQ 6th question, Mostly satisfied: % of patients (3 months after treatment): (51.83%)
SAQ 6th question, Mostly satisfied: number of patients (3 months after treatment): 904
SAQ 6th question, Partly satisfied: % of patients (3 months after treatment): (25.69%)
SAQ 6th question, Partly satisfied: number of patients (3 months after treatment): 448
SAQ 7th question, Dissatisfied: % of patients (3 months after treatment): (0.11%)
SAQ 7th question, Dissatisfied: number of patients (3 months after treatment): 2
SAQ 7th question, Highly satisfied: % of patients (3 months after treatment): (22.68%)
SAQ 7th question, Highly satisfied: number of patients (3 months after treatment): 395
SAQ 7th question, Mostly dissatisfied: % of patients (3 months after treatment): (1.95%)
SAQ 7th question, Mostly dissatisfied: number of patients (3 months after treatment): 34
SAQ 7th question, Mostly satisfied: % of patients (3 months after treatment): (54.08%)
SAQ 7th question, Mostly satisfied: number of patients (3 months after treatment): 942
SAQ 7th question, Partly satisfied: % of patients (3 months after treatment): (21.18%)
SAQ 7th question, Partly satisfied: number of patients (3 months after treatment): 369
SAQ Question 1-1 Mildly limited, number of patients (3 months after treatment): 26
SAQ Question 1-1 Mildly limited, percent of patients (3 months after treatment): (1.49%)
SAQ Question 1-1 Moderately limited, number of patients (3 months after treatment): 7
SAQ Question 1-1 Moderately limited, percent of patients (3 months after treatment): (0.40%)
SAQ Question 1-1 Not limited, number of patients (3 months after treatment): 1634
SAQ Question 1-1 Not limited, percent of patients (3 months after treatment): (93.69%)
SAQ Question 1-1 Other reasons, number of patients (3 months after treatment): 4
SAQ Question 1-1 Other reasons, percent of patients (3 months after treatment): (0.23%)
SAQ Question 1-1 Severely limited, number of patients (3 months after treatment): 1
SAQ Question 1-1 Severely limited, percent of patients (3 months after treatment): (0.06%)
SAQ Question 1-1 Slightly limited, number of patients (3 months after treatment): 72
SAQ Question 1-1 Slightly limited, percent of patients (3 months after treatment): (4.13%)
SAQ Question 1-2 Mildly limited, number of patients (3 months after treatment): 23
SAQ Question 1-2 Mildly limited, percent of patients (3 months after treatment): (1.32%)
SAQ Question 1-2 Moderately limited, number of patients (3 months after treatment): 10
SAQ Question 1-2 Moderately limited, percent of patients (3 months after treatment): (0.57%)
SAQ Question 1-2 Not limited, number of patients (3 months after treatment): 1603
SAQ Question 1-2 Not limited, percent of patients (3 months after treatment): (91.92%)
SAQ Question 1-2 Other reasons, number of patients (3 months after treatment): 7
SAQ Question 1-2 Other reasons, percent of patients (3 months after treatment): (0.40%)
SAQ Question 1-2 Severely limited, number of patients (3 months after treatment): 0
SAQ Question 1-2 Severely limited, percent of patients (3 months after treatment): (0.00%)
SAQ Question 1-2 Slightly limited, number of patients (3 months after treatment): 101
SAQ Question 1-2 Slightly limited, percent of patients (3 months after treatment): (5.79%)
SAQ Question 1-6: Mildly limited, patients (%) (3 months after treatment): (18.23%)
SAQ Question 1-6: Moderately limited, patients (%) (3 months after treatment): (13.05%)
SAQ Question 1-6: Not limited, patients (%) (3 months after treatment): (31.45%)
SAQ Question 1-6: Other reasons, patients (%) (3 months after treatment): (0.92%)
SAQ Question 1-6: Severely limited, patients (%) (3 months after treatment): (4.14%)
SAQ Question 1-6: Slightly limited, patients (%) (3 months after treatment): (32.20%)
SAQ Question 1-7: Mildly limited, patients (%) (3 months after treatment): (23.77%)
SAQ Question 1-7: Moserately limited, patients (%) (3 months after treatment): (15.07%)
SAQ Question 1-7: Not limited, patients (%) (3 months after treatment): (13.91%)
SAQ Question 1-7: Other reasons, patients (%) (3 months after treatment): (3.01%)
SAQ Question 1-7: Severely limited, patients (%) (3 months after treatment): (15.88%)
SAQ Question 1-7: Slightly limited, patients (%) (3 months after treatment): (28.35%)
SAQ Question 1-8: Mildly limited, patients (%) (3 months after treatment): (25.55%)
SAQ Question 1-8: Moderately limited, patients (%) (3 months after treatment): (17.89%)
SAQ Question 1-8: Not limited, patients (%) (3 months after treatment): (10.69%)
SAQ Question 1-8: Other reasons, patients (%) (3 months after treatment): (3.02%)
SAQ Question 1-8: Severely limieted, patients (%) (3 months after treatment): (21.02%)
SAQ Question 1-8: Slightly limited, patients (%) (3 months after treatment): (21.84%)
8th question: Dissatisfied, patients (%) (6 months after treatment): (0.17%)
8th question: Highly satisfied, patients (%) (6 months after treatment): (20.30%)
8th question: Mostly satisfied, patients (%) (6 months after treatment): (56.59%)
8th question: Partly satisfied, patients (%) (6 months after treatment): (20.70%)
9th question: Few, patients (%) (6 months after treatment): (34.75%)
9th question: Mild, patients (%) (6 months after treatment): (34.63%)
9th question: Severe, patients (%) (6 months after treatment): (0.86%)
9th question: Uneffective, patients (%) (6 months after treatment): (18.12%)
10th question: Dissatisfied, patients (%) (6 months after treatment): (20.87%)
10th question: Highly satisfied, patients (%) (6 months after treatment): (4.64%)
10th question: Mostly dissatisfied, patients (%) (6 months after treatment): (21.56%)
10th question: Mostly satisfied, patients (%) (6 months after treatment): (26.61%)
10th question: Partly satisfied, patients (%) (6 months after treatment): (26.32%)
11th question: Continuously worried, patients (%) (6 months after treatment): (4.42%)
11th question: No worried, patients (%) (6 months after treatment): (4.93%)
11th question: Occasionally worried, patients (%) (6 months after treatment): (41.69%)
11th question: Often worried, patients (%) (6 months after treatment): (14.85%)
11th question: Seldom worried, patients (%) (6 months after treatment): (34.12%)
SAQ 4th question, 1-2 times per week: % of patients (6 months after treatment): (17.55%)
SAQ 4th question, 1-2 times per week: number of patients (6 months after treatment): 306
SAQ 4th question, 1-3 times per day: % of patients (6 months after treatment): (4.70%)
